From PubChem BioAssay (NCI)
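96-well plates; 48 h exposure; 5 concentrations. Endpoints by linear interpolation between flanking doses. Not reached: highest tested concentration assigned. TGI denotes the concentration required for complete inhibition of growth.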

Assays:
Test in all cases: NCI anticancer screen, dose series, 48 h
A498 renal = test system: A498 renal
CAKI-1 renal = test system: CAKI-1 renal
CCRF-CEM leukemia = test system: CCRF-CEM leukemia
HL-60(TB) leukemia = test system: HL-60(TB) leukemia
HS 578T breast = test system: HS 578T breast
LOX IMVI melanoma = test system: LOX IMVI melanoma
M14 melanoma = test system: M14 melanoma
MALME-3M melanoma = test system: MALME-3M melanoma
MCF7 breast = test system: MCF7 breast
NCI-H460 lung = test system: NCI-H460 lung
NCI/ADR-RES ovarian = test system: NCI/ADR-RES ovarian
OVCAR-3 ovarian = test system: OVCAR-3 ovarian
TK-10 renal = test system: TK-10 renal
UO-31 renal = test system: UO-31 renal

| SMILES | TGI (A498 renal) [µM] | TGI (CAKI-1 renal) [µM] | TGI (CCRF-CEM leukemia) [µM] | TGI (HL-60(TB) leukemia) [µM] | TGI (HS 578T breast) [µM] | TGI (LOX IMVI melanoma) [µM] | TGI (M14 melanoma) [µM] | TGI (MALME-3M melanoma) [µM] | TGI (MCF7 breast) [µM] | TGI (NCI-H460 lung) [µM] | TGI (NCI/ADR-RES ovarian) [µM] | TGI (OVCAR-3 ovarian) [µM] | TGI (TK-10 renal) [µM] | TGI (UO-31 renal) [µM] |
| --- | --- | --- | --- | --- | --- | --- | --- | --- | --- | --- | --- | --- | --- | --- |
| c1ccc2c(c1)C(=Nc1ccc(N=C3c4ccccc4-c4ccccc43)cc1)c1ccccc1-2 | > 100 | > 100 | > 100 | > 100 | > 100 | > 100 | > 100 | > 100 | > 100 | > 100 | > 100 | > 100 | > 100 | > 100 |
| CC(C)=CCC[C@H](C)[C@H]1CC[C@@H](C)c2cc(O)c(C)cc21 | 30.7 | 31.9 | 68 | 41.7 | 37.8 | 32 | 33.9 | 33.4 | 32.5 | 33.7 | 36.7 | 35.3 | 32.8 | 28.2 |
| CCOC1SC(SC)=NN1C(=O)C(OC(C)=O)C(OC(C)=O)C(OC(C)=O)C(OC(C)=O)C(=O)N1N=C(SC)SC1OCC (centres undefined) | > 100 | > 100 | > 100 | > 100 | 96.2 | > 100 | > 100 | > 100 | > 100 | > 100 | > 100 | > 100 | > 100 | > 100 |
| N=c1oc2c(Cl)cc(Cl)cc2cc1C(=O)Nc1ccccn1 | > 100 | > 100 | > 100 | > 100 | 48.4 |  | > 100 | > 100 | > 100 | > 100 | > 100 | 57.5 | > 100 | > 100 |
| Cc1nc2c(ncn2CCO)c(=O)[nH]1 | > 100 | > 100 | > 100 | > 100 | > 100 | > 100 | > 100 | > 100 | > 100 | > 100 | > 100 | > 100 | > 100 |  |
| O=C1C[C@H]2[C@H](c3ccc(Br)cc3)[C@H]3C(=O)c4ccccc4NC(=O)[C@@H]3[C@@]2(O)c2ccccc2N1 | 78.8 | 28.3 | 53.3 | 15.3 | > 100 | 37.1 | 29 | 45.5 | 77.2 | > 100 | 61.9 | 37 | 56.8 |  |
| CC(=O)OC1COC(Nn2c(=O)[nH]c3ccccc3c2=O)C(OC(C)=O)C1OC(C)=O (centres undefined) | > 100 | > 100 | > 100 | > 100 | > 100 | > 100 | > 100 |  | > 100 | > 100 | > 100 | > 100 | > 100 | > 100 |
